Results: PMC5641330, “Prediction of a Therapeutic Dose for Buagafuran, a Potent Anxiolytic Agent by Physiologically Based Pharmacokinetic/Pharmacodynamic Modeling Starting from Pharmacokinetics in Rats and Human” (Frontiers in Pharmacology, 2017)
Like-named read-outs stand apart in the source and are kept apart here.

Experiments:
[1] = Plasma PK in the rat after oral dosing (observed); assay type: in vivo, male Wistar rats; conditions: male, Wistar; for AUC(0-t): read-out: AUC0-t Observed; for AUC(0-inf): read-out: AUC0-∞ Observed; for MRT inf: read-out: MRT(0-∞) Observed
Excerpt: Animal Care and Welfare Committee of Institute of Materia Medica, Chinese Academy of Medical Sciences approved all animal protocols (1 Xian nong tan Street, Xicheng District, Beijing, China; Permission Number: SYXK 2014-0023, Expiration: 06 Aug, 2019). All animal programs are in compliance with the Guide for the Care and Use of Laboratory Animals issued by Beijing Association on Laboratory Animal Care (BALAC). Buagafuran formulation of PVP was suspended in deionized water and was orally administered at 4 or 8 mg/kg to male Wistar rats (weighing 180–200 g). Brain samples treated with the dose of 4 mg/kg and blood samples of both treatments were collected over 3 h. Plasma samples were obtained by centrifugation, and brain tissues were homogenized in a threefold volume (w/v) of saline. Buagafuran concentrations in plasma and brain samples were quantitated by an LC-MS/MS method ([Yang et al., 2011]).
A volume of 200 μL plasma or tissue homogenate was mixed with 100 μL IS (10 ng/mL) followed by addition of 2 mL hexane. After vortexing for 2 min, the mixture was centrifuged for 5 min at 3000 g. The extracted solution was combined and evaporated to dryness at 25°C. The residues were reconstituted in 80 μL of 80% methanol. The chromatographic separation and mass spectrometric analysis was performed on a LC/TSQ Quantum Access mass spectrometer (Thermo Finnigan, San Jose, CA, United States). Ten microliter of the sample was injected onto an Agilent Eclipse Plus C18 analytical column (3.5 μm, 50 mm × 2.1 mm) and then buagafuran and IS were eluted with a gradient of acetonitrile (phase B) and water containing 0.1% v/v formic acid (phase A). The elution program was applied as follows: 50% B for 0–0.5 min, 50% B→97% B for 0.6–5.5 min, 50% B for 5.6–7.6 min. The outlet of the column was detected in positive ionization electrospray mode with selected reaction monitoring. The monitored transitions of buagafuran and IS were m/z 245→105 and 500→142, respectively. The retention time (RT) of buagafuran was 6.13 min. The linear range of the calibration curve was 0.5–800 ng/mL.
Pharmacokinetic parameters were determined with a non-compartmental model using WinNonlin v 6.0 (Pharsight Corporation, Mountain View, CA, United States). The area under the compound concentration versus time curve from time zero to the last time point (AUC0-t) and extrapolated to infinity (AUC0-∞) and the peak plasma concentration (Cmax) were calculated.

male Wistar rats = assay: Elevated plus-maze (EPM) test in the rat, with sigmoid Emax PK/PD fit; assay type: in vivo
Method: Anxiolytic activity of buagafuran was evaluated by EPM model. The rat EPM consisted of two open arms (50 cm × 10 cm) and two closed arms (50 cm × 10 cm × 40 cm) extending from the central platform (10 cm × 10 cm), the maze rising from the floor by 50 cm.
Male Wistar rats, weighing between 130 and 160 g, were handled daily for 1 week prior to the study and were fasted for 12 h before experiment. Group I: the treated rats received buagafuran formulation of PVP (2, 4, and 8 mg/kg) via the oral route, while the rats that served as control group received vehicle (PVP). Experiments were carried out 10 min after oral administration of drugs or vehicles. Group II: Rats were evaluated 5, 10, 15, 30, 60, 90, 120, and 180 min after oral treatment with buagafuran (4 mg/kg). During a typical test, place each rat on the center of the maze, facing an open arm, and allowing free exploration of the maze for a 5 min test period. An entry was defined by all four paws enter an arm. The total number of arm entries, and the time spent in each type of arm was recorded. The maze was wiped down with 10% ethanol between tests. All experiments were carried out between 9:00 am and 12:00 am.
The difference between control and treatment group was statistically analyzed by one-way analyses of variance (ANOVA). Differences with probabilities of less than 5% (p < 0.05) were regarded as significant.
The PD Plus module implemented in GastroPlus was used. Based on the parameters (R^2 and Akaike criterion) in PK-PD model simulation, the best-fitting model, Sigmoid Emax model, was employed to fit therapeutic PD response (time spent on the open arms) with the brain concentration profile of buagafuran in rat using the equation 4:
(4) E = E0+ EmaxC^γ/EC50 γ+C^γ.
where C is in ng/mL, E0 is the time spent by the control group in the open arms which is equal to 0.63, Emax is the maximum response, EC50 is the concentration of a compound at which 50% of its maximum response is observed and γ is the Hill coefficient. The set of parameter values for the model was determined by GastroPlus software. GastroPlus simulation was then used to predict the brain concentration profile and PD response profile of buagafuran in human.

[2] = set-up: method as in Zhang, 1997; Li et al., 2001; Li, 2010; conditions: human liver microsomes, ref Zhang, 1997, Li et al., 2001, 2010; cited from earlier work

## CCCCC1=CCC[C@@]2(C)CC[C@@H]3C[C@]12OC3(C)C [buagafuran]
[1]; oral 4 mg/kg
  Cmax: 5.31 ng/mL
  AUC(0-t): 6.69 ng·h/mL
  AUC(0-inf): 11.4 ng·h/mL
  MRT inf: 212 min
[1]; oral 4 mg/kg, read-out: Tmax Observed
  Tmax: 15 min
[1]; oral 8 mg/kg
  Cmax: 10.6 ng/mL
  AUC(0-t): 14.2 ng·h/mL
  AUC(0-inf): 15.1 ng·h/mL
  MRT inf: 72.6 min
[1]; single oral dosing 4 and 8 mg/kg, read-out: time of peak plasma concentration (converted)
  Tmax: 15 min
Male Wistar rats; rat EPM, oral 4 mg/kg
  time within which activity decreased: ≤ 2 h
Male Wistar rats; rat EPM, oral 4 mg/kg, p < 0.01 versus vehicle
  time of maximal level of activity: 15 min
Male Wistar rats; rat EPM, oral 4 mg/kg, p < 0.05 versus vehicle
  onset of action: ≤ 10 min
Male Wistar rats; rat EPM, oral 2, 4 and 8 mg/kg, dose-dependent, inverted U-shaped
  total time spent in open arms: significantly prolonged
Male Wistar rats; rat EPM, oral, p < 0.05 versus vehicle
  dose of maximum effect: 4 mg/kg
Male Wistar rats; time spent in open arms vs rat brain concentration, direct sigmoidal Emax model
  EC50: 0.0106 µg/mL
[2]
  extraction ratio: about 50%
